{
  "source": "patent US8592166B2",
  "about": "“Hypoxia related genes and proteins for the treatment and diagnosis of pregnancy related complications” (Beth Israel Deaconess Medical Center, Inc., priority 2006, dated 2013)",
  "key": {"pregnant mice": {"test_system": "pregnant mice", "assay": "COMT knockout mouse model of pre-eclampsia, administration of 2-ME to pregnant mice", "type": "in vivo", "conditions": "administration of 2-ME to mice, FIG. 12", "method": "FIG. 4 is a schematic of the experimental design for evaluating the role of COMT pre-eclampsia in mice.\nFIG. 5 is a graph showing the number of dead embryos on Day 17 of pregnancy in mice with the indicated genotype (WT=wild type; Ko=mice with the COMT gene knocked out; +2me indicates the addition of 2-ME 2 ng/day)."}, "[1]": {"test_system": "cytotrophoblasts from the placenta", "conditions": "FIG. 1 and WO 2005/110462; cited from earlier work"}},
  "data": [
    {"smiles": "COc1cc2c(cc1O)CC[C@@H]1[C@@H]2CC[C@]2(C)[C@@H](O)CC[C@@H]12", "note": "[2-ME, 2-methoxyestradiol]", "values": [
      {"measurement": "abnormal development", "setting": "pregnant mice", "value": "does not alter the litter size or cause abnormal development"},
      {"measurement": "litter size", "setting": "pregnant mice", "value": "does not alter the litter size"},
      {"measurement": "expression of HIF-1α", "setting": "[1]", "value": "decreases the expression of HIF-1α"},
      {"measurement": "expression of VEGF, PlGF, VEGF Receptor 1 (VEGFR1) and sFlt-1", "setting": "[1]", "value": "dramatic decrease"}
    ]}
  ]
}
